Measurements: ChEMBL document CHEMBL1201862, “PubChem BioAssay data set” (2004)
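Where inhibition never reached the appropriate level, the endpoint shown equals the highest concentration tested. Otherwise, values were interpolated linearly from a five-concentration, 48-hour dose response in 96-well plates. GI50: concentration for 50% inhibition of growth.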 Active and inactive are the calls of the source. Rule as the data show it: active = GI50 up to about 1.1 µM and inactive = higher.

Legend:
Experiment in all cases: inhibition of tumour cell growth, NCI panel, 48 h
BT-549 = test system: BT-549
CAKI-1 = test system: CAKI-1
CCRF-CEM = test system: CCRF-CEM
HCT-116 = test system: HCT-116
HCT-15 = test system: HCT-15
HT-29 = test system: HT-29
Hs-578T = test system: Hs-578T
KM12 = test system: KM12
MCF7 = test system: MCF7
MDA-MB-231 = test system: MDA-MB-231
MDA-N = test system: MDA-N
MOLT-4 = test system: MOLT-4
PC-3 = test system: PC-3
SF-268 = test system: SF-268
SNB-19 = test system: SNB-19
SW-620 = test system: SW-620
U-251 = test system: U-251
M14 = test system: M14
T47D = test system: T47D
UACC-62 = test system: UACC-62

SMILES | GI50 (BT-549) | GI50 (CAKI-1) | GI50 (CCRF-CEM) | GI50 (HCT-116) | GI50 (HCT-15) [µM] | GI50 (HT-29) | GI50 (Hs-578T) | GI50 (KM12) | GI50 (MCF7) | GI50 (MDA-MB-231) | GI50 (MDA-N) | GI50 (MOLT-4) | GI50 (PC-3) | GI50 (SF-268) | GI50 (SNB-19) | GI50 (SW-620) | GI50 (U-251) | GI50 (M14) | GI50 (T47D) | GI50 (UACC-62)
Cn1c(=O)c(-c2ccccc2)c(O)c2ccccc21 | > 100 µM (inactive) | > 100 µM (inactive) | > 100 µM (inactive) | > 100 µM (inactive) | > 100 | > 100 µM (inactive) | 66.4 µM (inactive) | > 100 µM (inactive) | > 100 µM (inactive) | > 100 µM (inactive) | > 100 µM (inactive) | > 100 µM (inactive) | > 100 µM (inactive) | > 100 µM (inactive) | > 100 µM (inactive) | > 100 µM (inactive) | > 100 µM (inactive) |  |  | 
COc1ccc2c(C)cc(N/N=C/c3ccc(OC)c4ccccc34)nc2c1 | 20.1 µM (inactive) | 13.4 µM (inactive) | 1.93 µM (inactive) | 5.35 µM (inactive) | 10.1 | 7.82 µM (inactive) | 15.7 µM (inactive) | 13.2 µM (inactive) | 19.4 µM (inactive) | 4.91 µM (inactive) |  | 3.97 µM (inactive) | 16.9 µM (inactive) | 15.9 µM (inactive) | 18.8 µM (inactive) | 7.06 µM (inactive) | 3.66 µM (inactive) | 17.1 µM (inactive) | 5.51 µM (inactive) | 14.3 µM (inactive)
c1ccc(C(=NCCC2CNc3ccccc32)c2ccccc2)cc1 (stereo not given) | > 100 µM (inactive) | > 100 µM (inactive) | > 100 µM (inactive) | > 100 µM (inactive) | > 100 | > 100 µM (inactive) | > 100 µM (inactive) | > 100 µM (inactive) | > 100 µM (inactive) | > 100 µM (inactive) | > 100 µM (inactive) | > 100 µM (inactive) | > 100 µM (inactive) |  | > 100 µM (inactive) | > 100 µM (inactive) | > 100 µM (inactive) | > 100 µM (inactive) |  | > 100 µM (inactive)
Cn1c(=O)oc2cc(C(=S)N3CCCCC3)ccc21 | > 100 µM (inactive) | > 100 µM (inactive) | 61.8 µM (inactive) | > 100 µM (inactive) | > 100 | > 100 µM (inactive) | > 100 µM (inactive) | > 100 µM (inactive) | > 100 µM (inactive) | > 100 µM (inactive) | > 100 µM (inactive) | > 100 µM (inactive) | > 100 µM (inactive) | > 100 µM (inactive) | > 100 µM (inactive) | > 100 µM (inactive) | > 100 µM (inactive) | > 100 µM (inactive) |  | > 100 µM (inactive)
COc1ccc(Cc2nc3cc(C(F)(F)F)ccc3n2CCCN(C)C)cc1 | 15.3 µM (inactive) | 18.2 µM (inactive) | 22 µM (inactive) |  | 20 | 18.5 µM (inactive) | 17.5 µM (inactive) | 16.7 µM (inactive) | 17.9 µM (inactive) | 24 µM (inactive) |  | 2.27 µM (inactive) | 22.9 µM (inactive) | 16.8 µM (inactive) | 27.6 µM (inactive) | 20.2 µM (inactive) | 17.1 µM (inactive) | 14.7 µM (inactive) | 15.7 µM (inactive) | 17.7 µM (inactive)
COc1cc2c(cc1OCCCCOc1cc(-c3ccc(F)cc3)nc(C)n1)N=C[C@@H]1CCCN1C2=O | 0.579 µM (active) | 0.313 µM (active) | 0.135 µM (active) | 0.838 µM (active) | 0.701 | 0.442 µM (active) | 1.05 µM (active) | 0.728 µM (active) | 0.502 µM (active) | 1.04 µM (active) |  | 0.108 µM (active) | 0.759 µM (active) | 0.771 µM (active) | 0.689 µM (active) | 0.855 µM (active) | 0.2 µM (active) | 0.678 µM (active) | 0.294 µM (active) | 0.378 µM (active)
